{"source": "patent US5486516A", "about": "“Furopyrimidine derivatives” (DowElanco, priority 1993, dated 1996)", "data": [{"system": "Puccinia recondita tritici (leaf rust)", "test": "Plant pathology screen (Test 1), leaf rust on wheat", "conditions": "in Triticum aestivum, foliar, read-out: LEAF RUST control rating", "units": {"pest or weed control at 400 µg/mL": "%"}, "values": [{"molecule": "Cc1cc2c(OCCC34CC5CC(CC(C5)C3)C4)ncnc2o1", "note": "[Example 38, 6-methyl-4-[2-(1-adamantyl)ethoxy]furo[2,3-d]pyrimidine]", "pest or weed control at 400 µg/mL": "0 to 19"}, {"molecule": "COc1ccc(CCNc2ncnc3oc(C)c(C)c23)cc1OC", "note": "[Example 25, 5,6-dimethyl-N-[2-(3,4-dimethoxyphenyl)ethyl]furo[2,3-d]pyrimidin-4-amine]", "pest or weed control at 400 µg/mL": "20 to 89"}, {"molecule": "COc1ccc(CCNc2ncnc3oc4c(c23)CCCC4)cc1", "note": "[Example 30, N-[2-(4-methoxyphenyl)ethyl]-5,6,7,8-tetrahydrobenzofuro[2,3-d]pyrimidin-4-amine]", "pest or weed control at 400 µg/mL": "20 to 89"}]}, {"system": "Erysiphe graminis tritici (powdery mildew)", "test": "Plant pathology screen (Test 1), powdery mildew on wheat", "conditions": "Blumeria graminis, in Triticum aestivum, foliar, read-out: POWD MDEW control rating", "units": {"pest or weed control at 400 µg/mL": "%"}, "values": [{"molecule": "Cc1cc2c(OCCC34CC5CC(CC(C5)C3)C4)ncnc2o1", "note": "[Example 38, 6-methyl-4-[2-(1-adamantyl)ethoxy]furo[2,3-d]pyrimidine]", "pest or weed control at 400 µg/mL": "0 to 19"}, {"molecule": "COc1ccc(CCNc2ncnc3oc(C)c(C)c23)cc1OC", "note": "[Example 25, 5,6-dimethyl-N-[2-(3,4-dimethoxyphenyl)ethyl]furo[2,3-d]pyrimidin-4-amine]", "pest or weed control at 400 µg/mL": "0 to 19"}, {"molecule": "COc1ccc(CCNc2ncnc3oc4c(c23)CCCC4)cc1", "note": "[Example 30, N-[2-(4-methoxyphenyl)ethyl]-5,6,7,8-tetrahydrobenzofuro[2,3-d]pyrimidin-4-amine]", "pest or weed control at 400 µg/mL": "0 to 19"}]}, {"system": "Pseudoperonospora cubensis (downy mildew)", "test": "Plant pathology screen (Test 1), downy mildew on squash", "conditions": "foliar, read-out: DOWN MDEW control rating", "units": {"pest or weed control at 400 µg/mL": "%"}, "values": [{"molecule": "Cc1cc2c(OCCC34CC5CC(CC(C5)C3)C4)ncnc2o1", "note": "[Example 38, 6-methyl-4-[2-(1-adamantyl)ethoxy]furo[2,3-d]pyrimidine]", "pest or weed control at 400 µg/mL": "0 to 19"}, {"molecule": "COc1ccc(CCNc2ncnc3oc(C)c(C)c23)cc1OC", "note": "[Example 25, 5,6-dimethyl-N-[2-(3,4-dimethoxyphenyl)ethyl]furo[2,3-d]pyrimidin-4-amine]", "pest or weed control at 400 µg/mL": "0 to 19"}, {"molecule": "COc1ccc(CCNc2ncnc3oc4c(c23)CCCC4)cc1", "note": "[Example 30, N-[2-(4-methoxyphenyl)ethyl]-5,6,7,8-tetrahydrobenzofuro[2,3-d]pyrimidin-4-amine]", "pest or weed control at 400 µg/mL": "20 to 89"}]}, {"system": "melon aphids (Aphis gossvpii Glover)", "test": "Mite/insect screen, melon aphids", "type": "in vivo", "conditions": "Aphis; rate 200 ppm, sprayed leaves; read-out: MA results (percent mortality)", "method_in_brief": "(§1)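 Percent mortality of melon aphids was assessed after standard exposure periods. Infested squash cotyledons had been sprayed on both leaf surfaces until runoff at 10 psi with water-diluted test solutions. Compounds were formulated in acetone/alcohol (50:50) containing emulsifiers.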", "units": {"mortality at 200 ppm": "%"}, "values": [{"molecule": "Cc1cc2c(OCCC34CC5CC(CC(C5)C3)C4)ncnc2o1", "note": "[Example 38, 6-methyl-4-[2-(1-adamantyl)ethoxy]furo[2,3-d]pyrimidine]", "mortality at 200 ppm": 0}, {"molecule": "COc1ccc(CCNc2ncnc3oc(C)c(C)c23)cc1OC", "note": "[Example 25, 5,6-dimethyl-N-[2-(3,4-dimethoxyphenyl)ethyl]furo[2,3-d]pyrimidin-4-amine]", "mortality at 200 ppm": 0}, {"molecule": "COc1ccc(CCNc2ncnc3oc4c(c23)CCCC4)cc1", "note": "[Example 30, N-[2-(4-methoxyphenyl)ethyl]-5,6,7,8-tetrahydrobenzofuro[2,3-d]pyrimidin-4-amine]", "mortality at 200 ppm": 0}]}, {"system": "melon aphids (Aphis gossvpii Glover)", "test": "Mite/insect screen, melon aphids", "type": "in vivo", "conditions": "Aphis; rate 400 ppm, sprayed leaves; read-out: MA results (percent mortality)", "method_in_brief": "as §1", "units": {"mortality at 400 ppm": "%"}, "values": [{"molecule": "Cc1cc2c(OCCC34CC5CC(CC(C5)C3)C4)ncnc2o1", "note": "[Example 38, 6-methyl-4-[2-(1-adamantyl)ethoxy]furo[2,3-d]pyrimidine]", "mortality at 400 ppm": 0}, {"molecule": "COc1ccc(CCNc2ncnc3oc(C)c(C)c23)cc1OC", "note": "[Example 25, 5,6-dimethyl-N-[2-(3,4-dimethoxyphenyl)ethyl]furo[2,3-d]pyrimidin-4-amine]", "mortality at 400 ppm": 0}, {"molecule": "COc1ccc(CCNc2ncnc3oc4c(c23)CCCC4)cc1", "note": "[Example 30, N-[2-(4-methoxyphenyl)ethyl]-5,6,7,8-tetrahydrobenzofuro[2,3-d]pyrimidin-4-amine]", "mortality at 400 ppm": 0}]}, {"system": "Twospotted spider mites (Tetranychus urticae Koch)", "test": "Mite/insect screen, twospotted spider mites", "type": "in vivo", "conditions": "Tetranychus urticae, rate 200 ppm, sprayed leaves; read-out: SM results (percent mortality)", "method_in_brief": "(§2)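 Percent mortality, along with phytotoxicity, was read after standard exposure periods. Beforehand, mites established on both surfaces of squash cotyledons received a runoff spray (10 psi) of water-diluted compound formulated in acetone/alcohol with sulfonate/nonionic emulsifiers.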", "units": {"mortality at 200 ppm": "%"}, "values": [{"molecule": "Cc1cc2c(OCCC34CC5CC(CC(C5)C3)C4)ncnc2o1", "note": "[Example 38, 6-methyl-4-[2-(1-adamantyl)ethoxy]furo[2,3-d]pyrimidine]", "mortality at 200 ppm": 0}, {"molecule": "COc1ccc(CCNc2ncnc3oc(C)c(C)c23)cc1OC", "note": "[Example 25, 5,6-dimethyl-N-[2-(3,4-dimethoxyphenyl)ethyl]furo[2,3-d]pyrimidin-4-amine]", "mortality at 200 ppm": 0}, {"molecule": "COc1ccc(CCNc2ncnc3oc4c(c23)CCCC4)cc1", "note": "[Example 30, N-[2-(4-methoxyphenyl)ethyl]-5,6,7,8-tetrahydrobenzofuro[2,3-d]pyrimidin-4-amine]", "mortality at 200 ppm": 0}]}, {"system": "Twospotted spider mites (Tetranychus urticae Koch)", "test": "Mite/insect screen, twospotted spider mites", "type": "in vivo", "conditions": "Tetranychus urticae, rate 400 ppm, sprayed leaves; read-out: SM results (percent mortality)", "method_in_brief": "as §2", "units": {"mortality at 400 ppm": "%"}, "values": [{"molecule": "Cc1cc2c(OCCC34CC5CC(CC(C5)C3)C4)ncnc2o1", "note": "[Example 38, 6-methyl-4-[2-(1-adamantyl)ethoxy]furo[2,3-d]pyrimidine]", "mortality at 400 ppm": 0}, {"molecule": "COc1ccc(CCNc2ncnc3oc(C)c(C)c23)cc1OC", "note": "[Example 25, 5,6-dimethyl-N-[2-(3,4-dimethoxyphenyl)ethyl]furo[2,3-d]pyrimidin-4-amine]", "mortality at 400 ppm": 0}, {"molecule": "COc1ccc(CCNc2ncnc3oc4c(c23)CCCC4)cc1", "note": "[Example 30, N-[2-(4-methoxyphenyl)ethyl]-5,6,7,8-tetrahydrobenzofuro[2,3-d]pyrimidin-4-amine]", "mortality at 400 ppm": 0}]}, {"system": "Botrytis cinerea (gray mold)", "test": "Plant pathology screen (Test 1), gray mold on grape berries", "conditions": "read-out: GRAY MOLD control rating", "units": {"pest or weed control at 400 µg/mL": "%"}, "values": [{"molecule": "Cc1cc2c(OCCC34CC5CC(CC(C5)C3)C4)ncnc2o1", "note": "[Example 38, 6-methyl-4-[2-(1-adamantyl)ethoxy]furo[2,3-d]pyrimidine]", "pest or weed control at 400 µg/mL": "0 to 19"}, {"molecule": "COc1ccc(CCNc2ncnc3oc(C)c(C)c23)cc1OC", "note": "[Example 25, 5,6-dimethyl-N-[2-(3,4-dimethoxyphenyl)ethyl]furo[2,3-d]pyrimidin-4-amine]", "pest or weed control at 400 µg/mL": "0 to 19"}, {"molecule": "COc1ccc(CCNc2ncnc3oc4c(c23)CCCC4)cc1", "note": "[Example 30, N-[2-(4-methoxyphenyl)ethyl]-5,6,7,8-tetrahydrobenzofuro[2,3-d]pyrimidin-4-amine]", "pest or weed control at 400 µg/mL": "0 to 19"}]}, {"system": "Southern corn rootworm (Diabrotica undecimpuctata howardi Barber)", "test": "Mite/insect screen, corn rootworm", "type": "in vivo", "conditions": "Diabrotica; CRW rate 12.00 ppm, soil; read-out: CRW results (percent mortality)", "method_in_brief": "(§3)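 Five 2-3 instar larvae per cup were placed on sandy soil (15 g, with presoaked corn seed) treated 6–12 h earlier with 1 mL test solution, an emulsified acetone/alcohol formulation diluted in water. Cups kept at 23° C; mortality and phytotoxicity assessed as percent after standard exposures.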", "units": {"mortality at 12 ppm": "%"}, "values": [{"molecule": "Cc1cc2c(OCCC34CC5CC(CC(C5)C3)C4)ncnc2o1", "note": "[Example 38, 6-methyl-4-[2-(1-adamantyl)ethoxy]furo[2,3-d]pyrimidine]", "mortality at 12 ppm": 0}, {"molecule": "COc1ccc(CCNc2ncnc3oc(C)c(C)c23)cc1OC", "note": "[Example 25, 5,6-dimethyl-N-[2-(3,4-dimethoxyphenyl)ethyl]furo[2,3-d]pyrimidin-4-amine]", "mortality at 12 ppm": 0}, {"molecule": "COc1ccc(CCNc2ncnc3oc4c(c23)CCCC4)cc1", "note": "[Example 30, N-[2-(4-methoxyphenyl)ethyl]-5,6,7,8-tetrahydrobenzofuro[2,3-d]pyrimidin-4-amine]", "mortality at 12 ppm": 0}]}, {"system": "Southern corn rootworm (Diabrotica undecimpuctata howardi Barber)", "test": "Mite/insect screen, corn rootworm", "type": "in vivo", "conditions": "Diabrotica; CRW rate 24.00 ppm, soil; read-out: CRW results (percent mortality)", "method_in_brief": "as §3", "units": {"mortality at 24 ppm": "%"}, "values": [{"molecule": "Cc1cc2c(OCCC34CC5CC(CC(C5)C3)C4)ncnc2o1", "note": "[Example 38, 6-methyl-4-[2-(1-adamantyl)ethoxy]furo[2,3-d]pyrimidine]", "mortality at 24 ppm": 0}, {"molecule": "COc1ccc(CCNc2ncnc3oc(C)c(C)c23)cc1OC", "note": "[Example 25, 5,6-dimethyl-N-[2-(3,4-dimethoxyphenyl)ethyl]furo[2,3-d]pyrimidin-4-amine]", "mortality at 24 ppm": 0}, {"molecule": "COc1ccc(CCNc2ncnc3oc4c(c23)CCCC4)cc1", "note": "[Example 30, N-[2-(4-methoxyphenyl)ethyl]-5,6,7,8-tetrahydrobenzofuro[2,3-d]pyrimidin-4-amine]", "mortality at 24 ppm": 0}]}, {"system": "Pyricularia oryzae (rice blast)", "test": "whole plant or invertebrate", "type": "in vivo", "conditions": "foliar, read-out: RICE BLAST control rating", "units": {"pest or weed control at 400 µg/mL": "%"}, "values": [{"molecule": "Cc1cc2c(OCCC34CC5CC(CC(C5)C3)C4)ncnc2o1", "note": "[Example 38, 6-methyl-4-[2-(1-adamantyl)ethoxy]furo[2,3-d]pyrimidine]", "pest or weed control at 400 µg/mL": "0 to 19"}, {"molecule": "COc1ccc(CCNc2ncnc3oc(C)c(C)c23)cc1OC", "note": "[Example 25, 5,6-dimethyl-N-[2-(3,4-dimethoxyphenyl)ethyl]furo[2,3-d]pyrimidin-4-amine]", "pest or weed control at 400 µg/mL": "0 to 19"}, {"molecule": "COc1ccc(CCNc2ncnc3oc4c(c23)CCCC4)cc1", "note": "[Example 30, N-[2-(4-methoxyphenyl)ethyl]-5,6,7,8-tetrahydrobenzofuro[2,3-d]pyrimidin-4-amine]", "pest or weed control at 400 µg/mL": "0 to 19"}]}, {"system": "southern armyworm (Spodopetra eridania Cramer)", "test": "Mite/insect screen, Southern armyworm", "type": "in vivo", "conditions": "Spodoptera eridania; rate 200 ppm, sprayed leaves; read-out: SAW results (percent mortality)", "method_in_brief": "(§4)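 Southern armyworm larvae placed in Petri dishes with two excised squash leaves that had been sprayed to runoff (10 psi) with emulsified compound and air-dried for 1 h. Mortality in percent recorded after a standard exposure period; formulation acetone/alcohol plus Toximul R and S, water-diluted.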", "units": {"mortality at 200 ppm": "%"}, "values": [{"molecule": "Cc1cc2c(OCCC34CC5CC(CC(C5)C3)C4)ncnc2o1", "note": "[Example 38, 6-methyl-4-[2-(1-adamantyl)ethoxy]furo[2,3-d]pyrimidine]", "mortality at 200 ppm": 0}, {"molecule": "COc1ccc(CCNc2ncnc3oc(C)c(C)c23)cc1OC", "note": "[Example 25, 5,6-dimethyl-N-[2-(3,4-dimethoxyphenyl)ethyl]furo[2,3-d]pyrimidin-4-amine]", "mortality at 200 ppm": 0}, {"molecule": "COc1ccc(CCNc2ncnc3oc4c(c23)CCCC4)cc1", "note": "[Example 30, N-[2-(4-methoxyphenyl)ethyl]-5,6,7,8-tetrahydrobenzofuro[2,3-d]pyrimidin-4-amine]", "mortality at 200 ppm": 0}]}, {"system": "southern armyworm (Spodopetra eridania Cramer)", "test": "Mite/insect screen, Southern armyworm", "type": "in vivo", "conditions": "Spodoptera eridania; rate 400 ppm, sprayed leaves; read-out: SAW results (percent mortality)", "method_in_brief": "as §4", "units": {"mortality at 400 ppm": "%"}, "values": [{"molecule": "Cc1cc2c(OCCC34CC5CC(CC(C5)C3)C4)ncnc2o1", "note": "[Example 38, 6-methyl-4-[2-(1-adamantyl)ethoxy]furo[2,3-d]pyrimidine]", "mortality at 400 ppm": 0}, {"molecule": "COc1ccc(CCNc2ncnc3oc(C)c(C)c23)cc1OC", "note": "[Example 25, 5,6-dimethyl-N-[2-(3,4-dimethoxyphenyl)ethyl]furo[2,3-d]pyrimidin-4-amine]", "mortality at 400 ppm": 0}, {"molecule": "COc1ccc(CCNc2ncnc3oc4c(c23)CCCC4)cc1", "note": "[Example 30, N-[2-(4-methoxyphenyl)ethyl]-5,6,7,8-tetrahydrobenzofuro[2,3-d]pyrimidin-4-amine]", "mortality at 400 ppm": 90}]}]}
